According to patent publication US8658564B2, “Fungicide active ingredient combinations” (Bayer Cropscience AG, priority 2007, dated 2014):

Experiments:
[1] = system: Pyrenophora teres; experiment: Pyrenophora teres test (barley)/protective; assay type: in vivo, Pyrenophora teres on barley; settings: 62.5 g/ha; evaluation 10 days after inoculation
Protocol: Pyrenophora teres Test (Barley)/Protective • Solvent: 50 parts by weight of N,N-dimethylacetamide • Emulsifier: 1 part by weight of alkylaryl polyglycol ether To produce a suitable preparation of active compound, 1 part by weight of active compound or active compound combination is mixed with the stated amounts of solvent and emulsifier, and the concentrate is diluted with water to the desired concentration, or a commercial formulation of active compound or active compound combination is diluted with water to the desired concentration. To test for protective activity, young plants are sprayed with the active compound preparation at the stated application rate. After the spray coating has dried on, the plants are sprayed with a conidia suspension of Pyrenophora teres. The plants remain in an incubation cabin at 20° C. and 100% relative atmospheric humidity for 48 hours. The plants are then placed in a greenhouse at a temperature of about 20° C. and a relative atmospheric humidity of about 80%. Evaluation is carried out 10 days after the inoculation. Here, 0% means an efficacy which corresponds to that of the control, whereas an efficacy of 100% means that no infection is observed.

[2] = system: Leptosphaeria nodorum; experiment: Leptosphaeria nodorum test (wheat)/protective; assay type: in vivo, Leptosphaeria nodorum on wheat; settings: evaluation 10 days after inoculation
Protocol: Leptosphaeria nodorum Test (Wheat)/Protective • Solvent: 50 parts by weight of N,N-dimethylacetamide • Emulsifier: 1 part by weight of alkylaryl polyglycol ether To produce a suitable preparation of active compound, 1 part by weight of active compound is mixed with the stated amounts of solvent and emulsifier, and the concentrate is diluted with water to the desired concentration. To test for protective activity, young plants are sprayed with the active compound preparation at the stated application rate. After the spray coating has dried on, the plants are sprayed with a spore suspension of Leptosphaeria nodorum. The plants remain in an incubation cabin at 20° C. and 100% relative atmospheric humidity for 48 hours. The plants are placed in a greenhouse at a temperature of about 20° C. and a relative atmospheric humidity of 80%. Evaluation is carried out 10 days after the inoculation. Here, 0% means an efficacy which corresponds to that of the control, whereas an efficacy of 100% means that no infection is observed.

[3] = system: Rhizoctonia solani; experiment: Rhizoctonia solani test (in vitro)/microtitre plates; assay type: cell-based; settings: 120 h, application rate 0.1 ppm, 5 days incubation, PDB medium, read-out: % efficacy
Protocol: Rhizoctonia solani Test (In Vitro)/Microtitre Plates The microtest is carried out in microtitre plates using Potato Dextrose Broth (PDB) as liquid test medium. The active compounds are used as technical-grade a.i., dissolved in methanol. For inoculation, a mycelium suspension of Rhizoctonia solani is used. After 5 days of incubation in the dark and with shaking (10 Hz), the transparency of each filled cavity of the microtitre plates is determined with the aid of a spectrophotometer. Here, 0% means an efficacy which corresponds to the growth in the controls, whereas an efficacy of 100% means that no fungal growth is observed.

SMILES | Efficacy in % found [1] [%] | Efficacy in % found ([2]; 125 g/ha) [%] | Emax at 0.1 ppm [3] [%] | Efficacy in % found ([2]; 62.5 g/ha) [%]
OC(Cc1ccccc1Cl)(Cn1nc[nH]c1=S)C1(Cl)CC1 (stereo not shown) [(II) Prothioconazole, prothioconazole] | 44 | – | – | –
COCC(=O)N(c1c(C)cccc1C)C(C)C(=O)OC (stereo not shown) [(III) Metalaxyl, metalaxyl] | 0 | 11 | – | –
CC(C)(C)C(O)(CCc1ccc(Cl)cc1)Cn1cncn1 (racemic) [Tebuconazole, (RS)-1-p-chlorophenyl-4,4-dimethyl-3-(1H-1,2,4-triazol-1-ylmethyl)-pentan-3-ol] | – | – | 13 | 56
Cc1nn(C)c(F)c1C(=O)Nc1ccccc1C(C)CC(C)C (stereo not shown) [(I), N-[2-(1,3-Dimethylbutyl)phenyl]-5-fluoro-1,3-dimethyl-1H-pyrazole-4-carboxamide] | 67 | – | – | 0
